Experimental data reported in PMC6048161, “Inward-facing conformation of L-ascorbate transporter suggests an elevator mechanism” (Cell Discovery, 2018).

How the values were obtained:
[1] = target: T1, ecUlaA (Escherichia coli, UniProt P39301); experiment: isothermal titration calorimetry; conditions: ITC performed as in ref. 11; detergent-purified protein; read-out: binding affinity; cited from earlier work
T1 construct: gene ulaA; homologue genes cloned in pET21b with C-terminal His8, E. coli C43(DE3)

[2] = target: T2, ecUlaA (Escherichia coli, UniProt P39301, T86P); experiment: isothermal titration calorimetry; type: binding
T2 construct: gene ulaA; homologue genes cloned in pET21b with C-terminal His8, E. coli C43(DE3)

Kd [2]: ~26.5 µM
SMILES: O=C1O[C@H]([C@@H](O)CO)C(O)=C1O [vitamin C]
Kd [1]: 6.1 ± 0.9 µM
